Patent US8124778B2, “Tricyclic inhibitors of fatty acid amide hydrolase” (The Scripps Research Institute, priority 2007, dated 2012)

Columns and labels:
KIAA1363 = target: T1, KIAA1363 (Mus musculus, UniProt Q8BLF1); assay: Proteome-wide selectivity screening, KIAA1363; type: biochemical; settings: IC50 based
T1 construct: from tissue
T1 sequence (Q8BLF1 1-408): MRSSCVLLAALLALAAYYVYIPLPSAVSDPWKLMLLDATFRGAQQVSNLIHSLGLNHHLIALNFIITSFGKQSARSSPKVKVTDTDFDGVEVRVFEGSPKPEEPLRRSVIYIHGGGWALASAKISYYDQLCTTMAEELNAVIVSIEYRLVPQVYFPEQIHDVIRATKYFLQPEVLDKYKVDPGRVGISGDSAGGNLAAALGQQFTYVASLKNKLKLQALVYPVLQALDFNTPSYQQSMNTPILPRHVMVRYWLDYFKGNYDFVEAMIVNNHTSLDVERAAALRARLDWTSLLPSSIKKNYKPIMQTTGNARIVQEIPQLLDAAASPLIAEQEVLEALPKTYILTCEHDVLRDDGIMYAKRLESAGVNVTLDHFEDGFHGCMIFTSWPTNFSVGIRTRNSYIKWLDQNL
From the text: (§1) The present invention concerns the synthesis and evaluation of a systematic series of α-keto oxazole inhibitors having variations at the C2 acyl side chain along with results of the proteome-wide selectivity screening of the candidate inhibitors. The screening protocol is described by Leung, D.; Hardouin, C.; et al. Nature Biotech. 2003, 21, 687-691.
(§2) Selectivity Screening. […] Consequently a method for proteomic-wide screening capable of globally profiling all mammalian serine hydrolases was developed (Leung, D.; Hardouin, C.; et al. Nature Biotech. 2003, 21, 687-691) and studies have shown that the α-ketoheterocycle class of inhibitors generally are exquisitely selective for FAAH (Boger, D. L.; Miyauchi, H.; et al. J. Med. Chem. 2005, 48, 1849-1856; Leung, D.; Du, W.; et al. Bioorg. Med. Chem. Lett. 2005, 15, 1423-1428; Lichtman, A. H.; Leung, D.; et al. J. Pharmacol. Exp. Ther. 2004, 311, 441-448). However, two enzymes did emerge as potential competitive targets: triacylglycerol hydrolase (TGH) and an uncharacterized membrane-associated hydrolase that lacks known substrates or function (KIAA1363). In this screen, IC50 values are typically higher than the measured Ki values, but the relative potency, the magnitude of binding affinity differences and the rank order binding determined in the assay parallels that established by standard substrate assays. […]

[1] = target: T2, triacylglycerol hydrolase (TGH) (Mus musculus, UniProt Q8VCT4); assay: Proteome-wide selectivity screening, TGH; type: biochemical; settings: IC50 based
T2 construct: from tissue
T2 sequence (Q8VCT4 19-565): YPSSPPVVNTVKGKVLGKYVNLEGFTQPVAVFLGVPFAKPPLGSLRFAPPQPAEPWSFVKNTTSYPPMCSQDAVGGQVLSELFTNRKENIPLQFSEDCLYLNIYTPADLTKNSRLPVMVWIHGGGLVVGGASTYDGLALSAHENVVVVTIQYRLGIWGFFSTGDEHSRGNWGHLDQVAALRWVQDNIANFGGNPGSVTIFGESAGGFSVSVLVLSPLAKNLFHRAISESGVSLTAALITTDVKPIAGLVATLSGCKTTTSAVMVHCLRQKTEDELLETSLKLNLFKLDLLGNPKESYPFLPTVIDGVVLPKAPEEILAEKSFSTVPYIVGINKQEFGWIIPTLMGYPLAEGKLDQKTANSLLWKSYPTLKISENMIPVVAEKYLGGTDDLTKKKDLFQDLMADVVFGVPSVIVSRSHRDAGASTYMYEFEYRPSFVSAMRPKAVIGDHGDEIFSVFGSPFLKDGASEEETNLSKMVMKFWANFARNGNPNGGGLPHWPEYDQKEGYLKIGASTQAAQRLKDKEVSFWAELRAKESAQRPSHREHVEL
From the text: as §1, §2

| SMILES | selectivity for FAAH over KIAA1363 (in words) (KIAA1363) | selectivity for FAAH over TGH (in words) [1] |
| --- | --- | --- |
| O=C(CCCCCCc1ccccn1)c1ncc(-c2ccccn2)o1 [5e, 1-Oxo-1-[5-(2-pyridyl)oxazol-2-yl]-7-(2-pyridyl)heptane] | very selective | moderately selective |
| O=C(CCCCCCc1cccnc1)c1ncc(-c2ccccn2)o1 [5f, 1-Oxo-1-[5-(2-pyridyl)oxazol-2-yl]-7-(3-pyridyl)heptane] | very selective | moderately selective |
